Measured values from US20260242416A1, “ANTIMICROBIAL PEPTIDES” (priority 2023, published 2026).
Values after ≈ are worked out from the molar mass of the structure shown. Where a SMILES comes first, the peptide text is derived from it.

Tests used:
E. coli ATCC 25922 = format: cell-based, Escherichia coli; conditions: ATCC 25922
Method in brief: (§1)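 MIC taken as lowest peptide level showing no visible growth after 20-24 h at 37° C. Twofold series 128-0.5 μg/mL in Mueller-Hinton broth, polypropylene plates, final inoculum 2-8×10^5 cfu/mL, per CLSI with cationic-peptide adaptations.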

[1] = system: Salmonella enterica serovar Enteritidis (human clinical isolate); format: cell-based; conditions: serovar Enteritidis (human clinical isolate)
Method in brief: as §1

S. aureus ATCC 29213 = format: cell-based, Staphylococcus aureus; conditions: ATCC 29213
Method in brief: as §1

[2] = system: E. coli ATCC 25922, Salmonella Enteritidis, S. aureus ATCC 29213; test: Broth microdilution, panel result (at least one / all strains), Example 2; format: cell-based; set-up: key to inhibitory activity (asterisk): *Indicates inhibitory activity; conditions: for inhibitory activity (asterisk): Table 14, against at least one of E. coli ATCC 25922, Salmonella Enteritidis, S. aureus ATCC 29213
Method in brief: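 CLSI broth microdilution adapted for cationic peptides, in MHB with a final inoculum of 2-8×10^5 cfu/mL in polypropylene plates. Peptides were serially diluted from 128 down to 0.5 μg/mL and incubated 20-24 h at 37° C. MIC is the lowest concentration with no visible growth.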

Row | SMILES | MIC (ug/mL) E. coli (E. coli ATCC 25922) | MIC (ug/mL) S. Enteritidis [1] | MIC (ug/mL) S. aureus (S. aureus ATCC 29213) | inhibitory activity (asterisk) [2] | spectrum of antimicrobial activity ([2]; panel of E. coli, Salmonella Enteritidis, S. aureus, up to 128 μg/mL)
1 | CC[C@H](C)[C@H](NC(=O)[C@H](CCCCN)NC(=O)[C@H](CCCCN)NC(=O)CNC(=O)[C@H](C)NC(=O)CNC(=O)[C@H](CC(C)C)NC(=O)[C@H](CC(C)C)NC(=O)CNC(=O)[C@H](CO)NC(=O)[C@H](CC(C)C)NC(=O)[C@H](CC(C)C)NC(=O)CN)C(=O)N[C@H](C(=O)N[C@@H](CS)C(=O)NCC(=O)N[C@@H](CC(C)C)C(=O)N[C@@H](CO)C(=O)NCC(=O)N[C@@H](CCSC)C(=O)N[C@@H](CS)C(=O)O)C(C)C [OdMa3] (H-GLLSGLLGAGKKIVCGLSGMC-OH; N-terminus and C-terminus assumed) | 8 to 16 µg/mL | 64 µg/mL (≈ 32.4 µM) | 32 µg/mL (≈ 16.2 µM) | 59.* GLLSGLLGAGKKIVCGLSGMC | 
2 | CC[C@H](C)[C@H](NC(=O)CN)C(=O)N[C@@H](CC(C)C)C(=O)N[C@@H](CO)C(=O)NCC(=O)N[C@@H](CC(C)C)C(=O)N[C@@H](CC(C)C)C(=O)NCC(=O)N[C@@H](C)C(=O)NCC(=O)N[C@@H](CCCCN)C(=O)N[C@@H](CCCCN)C(=O)N[C@H](C(=O)N[C@H](C(=O)N[C@@H](CS)C(=O)O)C(C)C)[C@@H](C)CC [OdMa4, GILSGLLGAGKKIVC] (H-GILSGLLGAGKKIVC-OH; N-terminus and C-terminus assumed) | 8 to 16 µg/mL | 32 µg/mL (≈ 22.4 µM) | > 128 µg/mL | 62.* GILSGLLGAGKKIVC | selective antimicrobial activity against the Gram-negative bacteria tested
3 | CC[C@H](C)[C@H](NC(=O)CN)C(=O)N[C@@H](CC(C)C)C(=O)N[C@@H](CO)C(=O)NCC(=O)N[C@@H](CC(C)C)C(=O)N[C@@H](CC(C)C)C(=O)NCC(=O)N[C@@H](C)C(=O)NCC(=O)N[C@@H](CCCCN)C(=O)N[C@@H](CCCCN)C(=O)N[C@H](C(=O)N[C@H](C(=O)N[C@@H](CS)C(=O)NCC(=O)N[C@@H](CC(C)C)C(=O)N[C@@H](CO)C(=O)NCC(=O)N[C@@H](CC(C)C)C(=O)N[C@@H](CS)C(=O)O)C(C)C)[C@@H](C)CC [OdMa5] (H-GILSGLLGAGKKIVCGLSGLC-OH; N-terminus and C-terminus assumed) | 8 to 16 µg/mL | 64 to 128 µg/mL | 8 to 16 µg/mL | 1091.* GILSGLLGAGKKIVCGLSGLC | 
4 | CC[C@H](C)[C@H](NC(=O)[C@H](CCCCN)NC(=O)[C@H](CCCCN)NC(=O)CNC(=O)[C@@H](NC(=O)CNC(=O)[C@H](CC(C)C)NC(=O)[C@@H](NC(=O)CNC(=O)[C@H](CO)NC(=O)[C@H](CC(C)C)NC(=O)[C@H](CC(C)C)NC(=O)CN)C(C)C)C(C)C)C(=O)N[C@H](C(=O)N[C@@H](CS)C(=O)NCC(=O)N[C@@H](CC(C)C)C(=O)N[C@@H](CO)C(=O)NCC(=O)N[C@@H](CC(C)C)C(=O)N[C@@H](CS)C(=O)O)C(C)C [OdMa6] (H-GLLSGVLGVGKKIVCGLSGLC-OH; N-terminus and C-terminus assumed) | 8 to 16 µg/mL | 128 µg/mL (≈ 64.9 µM) | 16 to 32 µg/mL | 1092.* GLLSGVLGVGKKIVCGLSGLC | 
5 | CC(C)C[C@H](NC(=O)CNC(=O)[C@H](CO)NC(=O)[C@H](CC(C)C)NC(=O)CNC(=O)[C@H](CS)NC(=O)[C@H](CC(C)C)NC(=O)[C@@H](NC(=O)[C@H](CCCCN)NC(=O)[C@H](CCCCN)NC(=O)CNC(=O)[C@@H](NC(=O)CNC(=O)[C@H](CC(C)C)NC(=O)[C@@H](NC(=O)CNC(=O)[C@H](CO)NC(=O)[C@H](CC(C)C)NC(=O)[C@H](CC(C)C)NC(=O)CN)C(C)C)C(C)C)C(C)C)C(=O)N[C@@H](CS)C(=O)O [OdMa7] (H-GLLSGVLGVGKKVLCGLSGLC-OH; N-terminus and C-terminus assumed) | 8 to 16 µg/mL | 128 µg/mL (≈ 64.9 µM) | 16 to 32 µg/mL | 1093.* GLLSGVLGVGKKVLCGLSGLC | 
6 | CC[C@H](C)[C@H](NC(=O)CNC(=O)[C@H](CO)NC(=O)[C@@H](NC(=O)[C@H](CC(C)C)NC(=O)CN)[C@@H](C)CC)C(=O)N[C@@H](CC(C)C)C(=O)NCC(=O)N[C@@H](C)C(=O)NCC(=O)N[C@@H](CCCCN)C(=O)N[C@@H](CCCCN)C(=O)N[C@H](C(=O)N[C@@H](CC(C)C)C(=O)N[C@@H](CS)C(=O)O)C(C)C [OdMa9, GLISGILGAGKKVLC] (H-GLISGILGAGKKVLC-OH; N-terminus and C-terminus assumed) | 64 to 128 µg/mL | 128 µg/mL (≈ 89.6 µM) | > 128 µg/mL | 68.* GLISGILGAGKKVLC | 

More lines, main results first:

Row | MIC (ug/mL) E. coli (E. coli ATCC 25922) | MIC (ug/mL) S. Enteritidis [1] | MIC (ug/mL) S. aureus (S. aureus ATCC 29213) | SMILES | inhibitory activity (asterisk) [2] | spectrum of antimicrobial activity ([2]; panel of E. coli, Salmonella Enteritidis, S. aureus, up to 128 μg/mL)
7 | 16 to 32 µg/mL | > 128 µg/mL | 64 to 128 µg/mL | CC[C@H](C)[C@H](NC(=O)CNC(=O)[C@H](CO)NC(=O)[C@@H](NC(=O)[C@H](CC(C)C)NC(=O)CN)[C@@H](C)CC)C(=O)N[C@@H](CC(C)C)C(=O)NCC(=O)N[C@@H](C)C(=O)NCC(=O)N[C@@H](CCCCN)C(=O)N[C@@H](CCCCN)C(=O)N[C@H](C(=O)N[C@@H](CC(C)C)C(=O)N[C@@H](CS)C(=O)NCC(=O)N[C@@H](CC(C)C)C(=O)N[C@@H](CO)C(=O)NCC(=O)N[C@@H](CC(C)C)C(=O)N[C@@H](CS)C(=O)O)C(C)C [OdMa10] (H-GLISGILGAGKKVLCGLSGLC-OH; N-terminus and C-terminus assumed) | 1094.* GLISGILGAGKKVLCGLSGLC | 
8 | 8 µg/mL (≈ 4.09 µM) | 32 to 64 µg/mL | 8 to 16 µg/mL | CC[C@H](C)[C@H](NC(=O)CN)C(=O)N[C@@H](CC(C)C)C(=O)N[C@@H](CO)C(=O)NCC(=O)N[C@@H](CC(C)C)C(=O)N[C@@H](CC(C)C)C(=O)NCC(=O)N[C@@H](C)C(=O)NCC(=O)N[C@@H](CCCCN)C(=O)N[C@@H](CCCCN)C(=O)N[C@@H](CC(C)C)C(=O)N[C@@H](C)C(=O)N[C@@H](CS)C(=O)NCC(=O)N[C@@H](CC(C)C)C(=O)N[C@H](C(=O)NCC(=O)N[C@@H](CC(C)C)C(=O)N[C@@H](CS)C(=O)O)[C@@H](C)CC [OdTo1] (H-GILSGLLGAGKKLACGLIGLC-OH; N-terminus and C-terminus assumed) | 153.* GILSGLLGAGKKLACGLIGLC | 
9 | 32 µg/mL (≈ 15.5 µM) | > 128 µg/mL | > 128 µg/mL | CC[C@H](C)[C@H](NC(=O)CN)C(=O)N[C@@H](Cc1ccccc1)C(=O)NCC(=O)NCC(=O)N[C@@H](Cc1c[nH]cn1)C(=O)N[C@@H](CC(C)C)C(=O)N[C@@H](CCCCN)C(=O)N[C@H](C(=O)NCC(=O)N[C@@H](CCCCN)C(=O)N[C@@H](CCCCN)C(=O)N[C@H](C(=O)N[C@@H](C)C(=O)N[C@@H](CS)C(=O)NCC(=O)N[C@@H](CC(C)C)C(=O)N[C@@H](CO)C(=O)NCC(=O)N[C@@H](CC(C)C)C(=O)N[C@@H](CS)C(=O)O)[C@@H](C)CC)C(C)C [OdTo2] (H-GIFGGHLKVGKKIACGLSGLC-OH; N-terminus and C-terminus assumed) | 139.* GIFGGHLKVGKKIACGLSGLC | 
10 | 32 µg/mL (≈ 15.5 µM) | > 128 µg/mL | > 128 µg/mL | CC[C@H](C)[C@H](NC(=O)CN)C(=O)N[C@@H](Cc1ccccc1)C(=O)NCC(=O)NCC(=O)N[C@@H](CC(C)C)C(=O)N[C@@H](CC(C)C)C(=O)N[C@@H](CCCCN)C(=O)N[C@@H](CCC(=O)O)C(=O)NCC(=O)N[C@@H](CCCCN)C(=O)N[C@@H](CCCCN)C(=O)N[C@H](C(=O)N[C@@H](C)C(=O)N[C@@H](CS)C(=O)NCC(=O)N[C@@H](CC(C)C)C(=O)N[C@@H](CO)C(=O)NCC(=O)N[C@@H](CC(C)C)C(=O)N[C@@H](CS)C(=O)O)[C@@H](C)CC [OdTo3] (H-GIFGGLLKEGKKIACGLSGLC-OH; N-terminus and C-terminus assumed) | 141.* GIFGGLLKEGKKIACGLSGLC | 
11 | 4 µg/mL (≈ 1.96 µM) | 16 to 32 µg/mL | 4 µg/mL (≈ 1.96 µM) | CC(C)C[C@H](NC(=O)CNC(=O)[C@H](CO)NC(=O)[C@@H](NC(=O)[C@@H](NC(=O)[C@H](CS)NC(=O)[C@H](CC(C)C)NC(=O)[C@@H](NC(=O)[C@H](CCCCN)NC(=O)[C@H](CCCCN)NC(=O)CNC(=O)[C@@H](NC(=O)CNC(=O)[C@H](CC(C)C)NC(=O)[C@@H](NC(=O)[C@H](CCCCN)NC(=O)CNC(=O)[C@H](CC(C)C)NC(=O)[C@H](CC(C)C)NC(=O)CN)C(C)C)C(C)C)C(C)C)C(C)C)C(C)C)C(=O)N[C@@H](CS)C(=O)O [PeNi2] (H-GLLGKVLGVGKKVLCVVSGLC-OH; N-terminus and C-terminus assumed) | 395.* GLLGKVLGVGKKVLCVVSGLC | 
12 | 16 to 32 µg/mL | 64 to 128 µg/mL | 64 to 128 µg/mL | CC[C@H](C)[C@H](NC(=O)CN)C(=O)N[C@@H](Cc1ccccc1)C(=O)N[C@@H](CO)C(=O)N[C@@H](CC(C)C)C(=O)N[C@H](C(=O)N[C@@H](CCCCN)C(=O)NCC(=O)N[C@@H](C)C(=O)N[C@@H](C)C(=O)N[C@@H](CCCCN)C(=O)N[C@H](C(=O)N[C@H](C(=O)N[C@@H](C)C(=O)N[C@@H](CCCCN)C(=O)NCC(=O)N[C@@H](CC(C)C)C(=O)NCC(=O)O)C(C)C)C(C)C)[C@@H](C)CC [PeNi3, GIFSLIKGAAKVVAKGLG] (H-GIFSLIKGAAKVVAKGLG-OH; N-terminus and C-terminus assumed) | 1096.* GIFSLIKGAAKVVAKGLG | 
